From patent US20210009557A1, “ACYCLIC CXCR4 INHIBITORS AND USES THEREOF” (X4 Pharmaceuticals, Inc., priority 2017, published 2021)

How the values were obtained:
[1] = in vitro; conditions: human, Caco-2, pH 7.4
Description: (§1) The goal of this assay was to evaluate the intestinal absorption potential of drug candidates using Caco-2 cell lines.
(§2) Experimental Procedure • 1. Pre-warm Pre-warm HBSS Buffer in 37° C. water bath • 2. Sonicate Take compounds from −20° C., sonicate for a few minutes (no less than 1 minute) • 3. Solution preparation
(§3) For A-to-B Direction: • HBSS buffer with 0.3% DMSO and 5 μM LY: add 150 μL DMSO and 50 μL LY (5 mM) into 50 ml HBSS buffer (pH 7.4). • HBSS buffer with 0.1% DMSO and 5 μM LY: add 50 μL DMSO and 50 μL LY (5 mM) into 50 mL HBSS buffer (pH 7.4).
(§4) For B-to-A Direction: • HBSS buffer with 0.3% DMSO: add 150 μL DMSO into 50 ml HBSS buffer (pH 7.4). HBSS buffer with 0.1% DMSO: add 50 μL DMSO into 50 ml HBSS buffer (pH 7.4).
(§5) For A-to-B Direction: • Prepare HBSS buffer with 0.4% DMSO: add 200 μL DMSO into 50 ml HBSS buffer (pH 7.4).
(§6) For B-to-A Direction: • Prepare HBSS buffer with 0.4% DMSO and 5 μM LY: add 200 μL DMSO and 50 μL LY (5 mM) into 50 ml HBSS buffer (pH 7.4).
(§7) • 4. Measure TEER Take cell culture plate out of incubator, wash the cell monolayers with HBSS buffer, and then measure TEER values at Rm temperature. • 5. Centrifuge Centrifuge the compound solution (from step 3) at 4000 rpm for 5 min before loading to donor chambers. • 6. Dosing Add solution based on the volumes listed in the following table (make sure to take extra 100 μL of donor sample for T0 as Backup).
(§8) • 7. Apical LYTO samples To determine LY concentration in the apical chamber, take 100 μL sample from apical chambers into an opaque plate for LYTO. • 8. Pre-warm Pre-warm apical and basolateral plates at 37° C. for about 5 min, then begin transport by placing the apical plate onto basolateral plate. • 9. Incubation Keep the plates in incubator at 37° C. for 90 min. • 10.
(§9) • Prepare 1× solution: • 3 μL (20×)+57 μL of 0.4% DMSO HBSS+60 μL ACN with IS (Osalmid or Imipramine)—120 μL (1×) • 11. Transport termination Separate the apical plate from the basolateral plate after 90-min incubation. • 12. Measure LY Take 100 μL samples from basolateral plate to an opaque plate as LYT90. • 13. Measure LY concentrations for LYTO and LYT90 by Fluorometer (at excitation of 485 nm/emission of 535 nm). • 14.
(§10) Drug permeability: Papp=(VA/(Area×time))×([drug]accepter/(([drug]initial, donor)×Dilution Factor) • Where VA is the volume in the acceptor well, area is the surface area of the membrane and time is the total transport time in seconds.
(§11) For Millicell-24 Cell Culture Plates: surface area of the membrane=0.7 cm^2, VA=0.8 mL (A-to-B) or 0.4 mL (B-to-A)

[2] = molecular target: T1, Jurkat cells expressing CXCR4 (Homo sapiens, UniProt P61073); assay: Chemokine (CXCL12-AF647) binding inhibition assay; conditions: CXCL12-AF647 25 ng/mL, read-out: IC50 CXCL-12 binding Jurkat
T1 construct: Jurkat cells expressing CXCR4; endogenous in cells; host or cells: Jurkat cells
Description: Jurkat cells expressing CXCR4 were washed once with assay buffer (Hanks' balanced salt solution with 20 mM HEPES buffer and 0.2% bovine serum albumin, pH 7.4) and then incubated for 15 min at room temperature with the test compounds diluted in assay buffer at dose-dependent concentrations. Subsequently, CXCL12-AF647 (25 ng/mL) was added to the compound-incubated cells. The cells were incubated for 30 min at room temperature. Thereafter, the cells were washed twice in assay buffer, fixed in 1% paraformaldehyde in PBS, and analyzed on the FL4 channel of a FACSCalibur flow cytometer equipped with a 635-nm red diode laser (Becton Dickinson, San Jose, Calif., USA).
The percentages of inhibition of CXCL12-AF647 binding were calculated according to the formula: [1−((MFI−MFINC)/(MFIPC−MFINC))]×100 where MFI is the mean fluorescence intensity of the cells incubated with CXCL12-AF647 in the presence of the inhibitor, MFINC is the mean fluorescence intensity measured in the negative control (i.e., autofluorescence of unlabeled cells), and MFIPC is the mean fluorescence intensity of the positive control (i.e., cells exposed to CXCL12-AF647 alone).

[3] = molecular target: T2, CXCR-4 transfected U87 cell line (U87.CXCR4) (Homo sapiens, UniProt P61073); assay: Intracellular CXCL-12-induced calcium mobilization assay (FLIPR); type: cell-based; conditions: U87.CXCR4 cells; CXCL-12 25-50 ng/mL; compounds added 15 minutes before; read-out: IC50 CXCL-12 Ca2+ flux U87.CXCR4+
T2 construct: expressed in transfected cells; host or cells: U87 cell line (U87.CXCR4)
Description: Intracellular calcium mobilization induced by chemokines orchemokine-derived peptides were evaluated using a calcium responsive fluorescent probe and a FLIPR system. The CXCR-4 transfected U87 cell line (U87.CXCR4) cells were seeded in gelatine-coated black-wall 96-well plates at 20,000 cells per well and incubated for 12 hours. Cells were then loaded with the fluorescent calcium probe Fluo-2 acetoxymethyl at 4 μM final concentration in assay buffer (Hanks' balanced salt solution with 20 mM HEPES buffer and 0.2% bovine serum albumin, pH 7.4) for 45 min at 37′C. The intracellular calcium mobilization induced by the CXCL-12 (25-50 ng/mL) was then measured at 37° C. by monitoring the fluorescence as a function of time in all the wells simultaneously using a fluorometric imaging plate reader (FLIPR Tetra, Molecular Devices).

[4] = system: Caco-2 cells; assay: in vitro; conditions: Caco-2
Description: as §1, §2, §3, §4, §5, §6, §7, §8, §9, §10, §11

T2 sequence (P61073 whole entry): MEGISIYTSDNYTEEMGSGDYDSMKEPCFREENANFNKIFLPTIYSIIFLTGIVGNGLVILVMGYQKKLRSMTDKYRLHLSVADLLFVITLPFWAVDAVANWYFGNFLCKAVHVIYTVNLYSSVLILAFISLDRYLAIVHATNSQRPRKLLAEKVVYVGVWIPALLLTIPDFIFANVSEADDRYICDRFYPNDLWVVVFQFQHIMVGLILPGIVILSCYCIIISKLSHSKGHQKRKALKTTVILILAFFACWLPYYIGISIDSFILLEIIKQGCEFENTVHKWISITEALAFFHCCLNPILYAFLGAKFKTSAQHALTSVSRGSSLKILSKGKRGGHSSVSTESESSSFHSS
T1 sequence (P61073 whole entry): as above

| Papp A→B at 90 min, 10 μM [1] [×10⁻⁶ cm/s] | Papp B→A at 90 min, 10 μM [1] [×10⁻⁶ cm/s] | efflux ratio at 90 min, 10 μM [1] | IC50 [2] [nM] | IC50 [3] [nM] | permeability for Lucifer Yellow [4] | Compound |
| --- | --- | --- | --- | --- | --- | --- |
| < 5 | > 10 | 10 to 30 | 0.01 to 100 | ≥ 1000 | – | Cc1cccnc1CN(CCc1c[nH]cn1)Cc1nc2cccc(F)c2n1C [Compound I-40] |
| < 5 | > 10 | > 30 | 0.01 to 100 | 100 to 1000 | – | Cc1cccnc1CN(CCc1c[nH]cn1)Cc1nc2ccc(F)cc2n1C [Compound I-41] |
| < 5 | > 10 | > 30 | 0.01 to 100 | ≥ 1000 | – | Cc1cccnc1CN(CCc1c[nH]cn1)Cc1nc2cc(F)ccc2n1C [Compound I-42] |
| 5 to 10 | > 10 | 0.1 to 10 | 0.01 to 100 | 0.01 to 100 | – | Cc1cccnc1CN(CCc1c[nH]cn1)Cc1nc2c(F)cccc2n1C [Compound I-43, N-((4-fluoro-1-methyl-1H-benzo[d]imidazol-2-yl)methyl)-2-(1H-imidazol-4-yl)-N-((3-methylpyridin-2-yl)methyl)ethan-1-amine] |
| 5 to 10 | > 10 | 0.1 to 10 | 0.01 to 100 | 0.01 to 100 | – | Cn1c(CN(CCc2c[nH]cn2)[C@H]2CCCc3cccnc32)nc2cccc(F)c21 [Compound I-44] |
| < 5 | > 10 | 0.1 to 10 | 0.01 to 100 | ≥ 1000 | – | Cn1c(CN(CCc2c[nH]cn2)[C@H]2CCCc3cccnc32)nc2cc(F)ccc21 [Compound I-45] |
| > 10 | > 10 | 0.1 to 10 | 0.01 to 100 | ≥ 1000 | – | Cc1cccnc1CN(CCC(N)=O)Cc1ncccc1-c1ccccc1 [Compound I-46] |
| > 10 | > 10 | 0.1 to 10 | 100 to 1000 | ≥ 1000 | – | CC(C)c1cccnc1CN(CCC(N)=O)Cc1ncccc1-c1ccccc1 [Compound I-47] |
| < 5 | > 10 | 0.1 to 10 | 0.01 to 100 | ≥ 1000 | – | CC(C)c1cccnc1CN(CCC(N)=O)[C@H]1CCCc2cccnc21 [Compound I-48] |
| 5 to 10 | > 10 | 0.1 to 10 | 0.01 to 100 | 100 to 1000 | – | NC(=O)CCN(Cc1nccc2ccccc12)[C@H]1CCCc2cccnc21 [Compound I-49] |
| > 10 | > 10 | 0.1 to 10 | ≥ 1000 | ≥ 1000 | – | NC(=O)CCN(Cc1nccs1)[C@H]1CCCc2cccnc21 [Compound I-50] |
| 5 to 10 | > 10 | 0.1 to 10 | 0.01 to 100 | ≥ 1000 | – | NC(=O)CCN(Cc1ncccc1-c1ccccc1)[C@H]1CCCc2cccnc21 [Compound I-51] |
| 5 to 10 | > 10 | 0.1 to 10 | 100 to 1000 | ≥ 1000 | – | Cc1cccnc1CN(CCc1c[nH]cn1)Cc1nccs1 [Compound I-52] |
| > 10 | > 10 | 0.1 to 10 | 100 to 1000 | ≥ 1000 | – | Clc1cccnc1CN(CCc1cnc[nH]1)Cc1nccs1 [Compound I-53] |
| 5 to 10 | > 10 | 0.1 to 10 | 100 to 1000 | ≥ 1000 | – | c1ccc2c(CN(CCc3c[nH]cn3)Cc3nccs3)nccc2c1 [Compound I-54] |
| > 10 | > 10 | 0.1 to 10 | 100 to 1000 | ≥ 1000 | – | OCCN(Cc1nc2ccccc2[nH]1)[C@H]1CCCc2cccnc21 [Compound I-55] |
| 5 to 10 | > 10 | 0.1 to 10 | 0.01 to 100 | ≥ 1000 | – | COc1cccnc1CCN(Cc1ncccc1C)Cc1ncccc1C [Compound I-56] |
| < 5 | > 10 | 0.1 to 10 | 0.01 to 100 | 100 to 1000 | – | Cc1cccnc1CN(CCc1cnc[nH]1)Cc1ncccc1-c1ccccc1 [Compound I-57] |
| > 10 | > 10 | 0.1 to 10 | 100 to 1000 | ≥ 1000 | – | Cc1cccnc1CN(CCn1ccccc1=O)Cc1ncccc1C [Compound I-58] |
| > 10 | > 10 | 0.1 to 10 | 100 to 1000 | ≥ 1000 | – | Cc1cccnc1CN(CCc1cccc(O)n1)Cc1ncccc1C [Compound I-59] |
| – | – | – | – | – | low permeability | Lucifer Yellow [reference compound] |
